{"source": "patent US20250082656A1", "about": "“DOSAGE REGIMENS FOR TREATMENT OF DENGUE INFECTION” (Atea Pharmaceuticals, Inc., priority 2022, published 2025)", "key": {"[1]": {"assay": "Plasma PK after single oral dose of AT-752, monkeys", "type": "in vivo, cynomolgus monkeys", "conditions": "Monkey, single oral AT-752 300 mg/kg", "procedure": "Male cynomolgus monkeys were administered 300 mg/kg Compound 2 (AT-752). Blood samples were collected up to 24 hrs. post dose, plasma separated and analyzed for Compound 1 (AT-281), Compound 3 (AT-551), and Compound 6 (AT-273) by LC-MS/MS. Data are express as mean+/−SD (n=3-5/time point). The x-axis is time post the dose measured in hours and the y-axis is the plasma concentration of the metabolites measured in nanomoles/mL). The experimental procedure is provided in Example 14.\nMale non-naïve cynomolgus monkeys (Hainan Jingang Laboratory Animal Co. Ltd., China), at least 2 kg body weight, were individually housed during the study in stainless steel mesh cages, provided ad libitum access to RO water, fed twice daily (except on the day of dosing when they were fed once) with ˜60 g Certified Monkey Diet each feed (Beijing Vital Keao Feed Co., Ltd., Beijing, China) and given daily treats of fresh fruit. They (n=5) were administered a dose of Compound 2 (AT-752) at 300 mg/kg in 40% PEG400, 10% solutol HS15, 50% 100 mM citrate buffer, pH 4.5 (v/v) by oral gavage, and blood samples (˜0.5 mL) were collected at 1, 2, 4, 8, 12 and 24 h post dose. Plasma was separated at each time point for pharmacokinetics, and stored at −70° C. […] Separately, three monkeys were given an oral dose of Compound 2 (AT-752) as powder in capsules at 60 mg/kg ([…] (AT-281) equivalent dose of 55 mg/kg), and blood samples collected at 12, 24 and 48 h post dose.\n(§1) Pharmacokinetic measurements for FIGS. 11, 12, 13, 14, and 15 were analyzed using LC-MS/MS according to the protocol described herein. Plasma samples were prepared for MS analysis by adding internal standards and extracting with 20 volumes chilled ACN. After vortex (800 rpm for 10 min) and centrifugation (4,000 rpm, 15 min, 4° C.), the supernatants (25 μL) were diluted with an equal volume of H2O, mixed and spun again. After adding internal standards, the PBMC samples (10^6 cells) were lyzed with 300 μL MeOH/H2O (70:30, v/v) and 40 mM dibutylammonium acetate (DBAA), mixed by vortex and centrifuged (12,000 rpm, 15 min, 4° C.). Aliquots of the supernatants (35 μL) were dried under nitrogen and reconstituted in H2O, then mixed and spun again. […] A binary nonlinear gradient with mobile phases A (0.1% formic acid in water) and B (0.1% formic acid in ACN) were used to elute samples at 0.8 mL/min, with a run time of 5 min. […] A binary nonlinear gradient with mobile phases A (0.001% NHr H2O, 0.18 mM DBAA in H2O) and B (10 mM N,N-dimethyl-hexylamine, 3 mM NH4OAc in ACN/H2O (50.50, v/v)) were used to elute samples at 0.5 mL/min, with a run time of 3 min. Standards in 50% MeOH were used for calibration. […] Internal standards (ISS) as described previously (Good et al., Preclinical evaluation of AT-527, a novel guanosine nucleotide prodrug with potent, pan-genotypic activity against hepatitis C virus. PLos One 15:e02271045) were used to correct for variations in recovery.\n(§2) Data analysis of the pharmacokinetic data generated according to Example 21 and presented in FIGS. 11, 12, 13, 14, and 15 was analyzed according to the procedure described herein. Plasma concentrations of Compound 1 (AT-281), Compound 3 (AT-551) and Compound 6 (AT-273) were subjected to non-compartmental pharmacokinetic analysis using Phoenix WinNonlin software (version 6.3 or above, Pharsight, Mountain View, CA). The linear/log trapezoidal rule was applied in obtaining the PK parameters."}, "[2]": {"assay": "Multiple-dose tolerability and steady state exposure, mice", "type": "in vivo, CD-1 mice", "conditions": "1000 mg/kg loading then 500 mg/kg twice a day for 3 days", "procedure": "There were no adverse clinical signs observed in the mice so the multiple doses of the prodrug were well-tolerated.\nSeparately, two mouse studies with multiple dosing were conducted. First, 9 naïve CD-1 mice were administered Compound 1 (AT-281) in 100 mM citrate buffer, pH 4.5 by oral gavage at 500 mg/kg for the first dose and, 4 h later, 250 mg/kg for the second dose. Blood samples were collected, 3 animals per time point, at 4 (before the second dosing), 8 and 16 h post the first dose, and PBMCs isolated. Secondly, 9 naïve CD-1 mice were administered Compound 1 (AT-281) by oral gavage at 1000 mg/kg for the first dose, and then 4 h later, they were given twice daily doses 12 hours apart for 3 consecutive days at 500 mg/kg. Blood samples were collected, 3 animals per time point, at 16 (received one 500 mg/kg dose), 40 (received three 500 mg/kg doses) and 76 h post first dose (received six 500 mg/kg doses), and PBMCs were isolated.\nas §1"}, "[3]": {"assay": "Plasma PK after single oral dose of AT-752, mice", "conditions": "Mouse, single oral AT-752 420 mg/kg"}, "[4]": {"assay": "Pharmacokinetic study in SAD cohorts", "type": "in vivo, human", "conditions": "for CL renal / AUC(0-inf) / half-life / Cmax / Tmax: both sexes, human, po; for CL renal: plasma and urine; for AUC(0-inf) / half-life / Cmax / Tmax: plasma, human plasma; for Cmax: read-out: Cmax; for Tmax: read-out: Tmax", "procedure": "as §1, §2"}, "[5]": {"conditions": "250 mg, single oral Compound 2 250 mg, fasting"}, "[6]": {"conditions": "500 mg, single oral Compound 2 500 mg, fasting"}, "[7]": {"conditions": "500 mg, single oral Compound 2 500 mg, fed"}, "[8]": {"conditions": "1000 mg, single oral Compound 2 1000 mg, South/Southeast/East Asian origin"}, "[9]": {"conditions": "1000 mg, single oral Compound 2 1000 mg, fasting"}, "[10]": {"conditions": "1500 mg, single oral Compound 2 1500 mg, fasting"}}}
{"smiles": "CNc1nc(N)nc2c1ncn2[C@@H]1O[C@H](CO[P@](=O)(N[C@@H](C)C(=O)OC(C)C)Oc2ccccc2)[C@@H](O)[C@@]1(C)F", "note": "[Compound 1, isopropyl ((R)-(((2R,3R,4R,5R)-5-(2-amino-6-(methylamino)-9H-purin-9-yl)-4-fluoro-3-hydroxy-4-methyltetrahydrofuran-2-yl)methoxy)(phenoxy)phosphoryl)-L-alaninate]", "values": [{"measurement": "time present in plasma", "setting": "[1]", "value": "more than 4 h"}, {"measurement": "AUC0-24 h", "setting": "[1]; plasma", "value": "9.5 ± 3.7", "unit": "µM·h"}, {"measurement": "Cmax", "setting": "[1]; plasma", "value": "3.7 ± 1.5", "unit": "µM"}, {"measurement": "Tmax", "setting": "[1]; plasma", "value": 60, "unit": "min"}, {"measurement": "tolerability of multiple doses (adverse clinical signs)", "setting": "[2]", "value": "well-tolerated"}, {"measurement": "AUC0-24 h", "setting": "[3]", "value": "4.2 ± 0.5", "unit": "µM·h"}, {"measurement": "Cmax", "setting": "[3]", "value": "2.6 ± 0.3", "unit": "µM"}, {"measurement": "Tmax", "setting": "[3]", "value": "48 ± 18", "unit": "min"}, {"measurement": "CL renal", "setting": "[4]; [5]", "value": 125, "unit": "mL/min"}, {"measurement": "CL renal", "setting": "[4]; [6]", "value": 182, "unit": "mL/min"}, {"measurement": "CL renal", "setting": "[4]; [7]", "value": 110, "unit": "mL/min"}, {"measurement": "CL renal", "setting": "[4]; [8]", "value": 162, "unit": "mL/min"}, {"measurement": "CL renal", "setting": "[4]; [9]", "value": 190, "unit": "mL/min"}, {"measurement": "CL renal", "setting": "[4]; [10]", "value": 138, "unit": "mL/min"}, {"measurement": "AUC(0-inf)", "setting": "[4]; [5]", "value": "347 ± 64", "unit": "ng·h/mL"}, {"measurement": "half-life", "setting": "[4]; [5]", "value": "30 ± 6", "unit": "min"}, {"measurement": "Cmax", "setting": "[4]; [5]", "value": "482 ± 131", "unit": "ng/mL"}, {"measurement": "Tmax", "setting": "[4]; [5]", "value": 30, "unit": "min"}, {"measurement": "AUC(0-inf)", "setting": "[4]; [6]", "value": "1110 ± 687", "unit": "ng·h/mL"}, {"measurement": "half-life", "setting": "[4]; [6]", "value": "30 ± 60", "unit": "min"}, {"measurement": "Cmax", "setting": "[4]; [6]", "value": "1230 ± 1110", "unit": "ng/mL"}, {"measurement": "Tmax", "setting": "[4]; [6]", "value": 30, "unit": "min"}, {"measurement": "AUC(0-inf)", "setting": "[4]; [7]", "value": "980 ± 716", "unit": "ng·h/mL"}, {"measurement": "half-life", "setting": "[4]; [7]", "value": "42 ± 18", "unit": "min"}, {"measurement": "Cmax", "setting": "[4]; 500 mg, single oral Compound 2 500 mg, fed (high-fat/high-calorie meal)", "value": "488 ± 303", "unit": "ng/mL"}, {"measurement": "Tmax", "setting": "[4]; [7]", "value": 120, "unit": "min"}, {"measurement": "AUC(0-inf)", "setting": "[4]; [8]", "value": "2730 ± 944", "unit": "ng·h/mL"}, {"measurement": "half-life", "setting": "[4]; [8]", "value": "30 ± 6", "unit": "min"}, {"measurement": "Tmax", "setting": "[4]; [8]", "value": 30, "unit": "min"}, {"measurement": "AUC(0-inf)", "setting": "[4]; [9]", "value": "1920 ± 508", "unit": "ng·h/mL"}, {"measurement": "half-life", "setting": "[4]; [9]", "value": "30 ± 6", "unit": "min"}, {"measurement": "Cmax", "setting": "[4]; [9]", "value": "3040 ± 960", "unit": "ng/mL"}, {"measurement": "Tmax", "setting": "[4]; [9]", "value": 30, "unit": "min"}, {"measurement": "Cmax", "setting": "[4]; 1000 mg, single oral Compound 2 1000 mg, patients of South/Southeast/East Asian origin", "value": "3670 ± 1260", "unit": "ng/mL"}, {"measurement": "AUC(0-inf)", "setting": "[4]; [10]", "value": "4630 ± 1500", "unit": "ng·h/mL"}, {"measurement": "half-life", "setting": "[4]; [10]", "value": "36 ± 12", "unit": "min"}, {"measurement": "Cmax", "setting": "[4]; [10]", "value": "5050 ± 2080", "unit": "ng/mL"}, {"measurement": "Tmax", "setting": "[4]; [10]", "value": 30, "unit": "min"}, {"measurement": "dose proportionality of plasma exposure", "setting": "[4]; dose range 250 to 1500 mg", "value": "greater than dose-proportional manner"}, {"measurement": "Urine Elimination", "setting": "[4]; following single oral administration of Compound 2 at 250 to 1500 mg", "value": "< 3", "unit": "%"}]}
